Holding throughout (format): in vivo
For one experiment, the system named is Lolium perenne (LOLPE). In words: Experiment B1 glasshouse herbicide test, pre- and post-emergence, percentage damage. As to conditions: evaluated after 13 days. On the procedure: (§1) Seeds of a variety of test species are sown in standard soil in pots (Lolium perenne (LOLPE), Solanum nigrum (SOLNI), Amaranthus retoflexus (AMARE), Setaria faberi (SETFA), Echinochloa crus-galli (ECHCG), Ipomoea hederacea (IPOHE)). After cultivation for one day (pre-emergence) or after 8 days cultivation (post-emergence) under controlled conditions in a glasshouse (at 24/16° C., day/night; 14 hours light; 65% humidity), the plants are sprayed with an aqueous spray solution derived from the formulation of the technical active ingredient in acetone/water (50:50) solution containing 0.5% Tween 20 (polyoxyethelyene sorbitan monolaurate, CAS RN 9005-64-5). […] The test plants are then grown in a glasshouse under controlled conditions in a glasshouse (at 24/16° C., day/night; 14 hours light; 65% humidity) and watered twice daily. After 13 days for pre and post-emergence, the test is evaluated for the percentage damage caused to the plant. The biological activities are shown in the following table on a five point scale (5=80-100%; 4=60-79%; 3=40-59%; 2=20-39%; 1=0-19%).

Another experiment concerns Solanum nigrum (SOLNI). The description is as above. As to conditions: evaluated after 13 days. Here is the method: as §1
For experiment [1], the system named is Echinochloa crus-galli (ECHCG). The description is as above. The following applies: evaluated after 13 days. Here is the method: as §1
The test system of experiment [2] is Ipomoea hederacea (IPOHE). The experiment is described as above. As to conditions: evaluated after 13 days. On the procedure:
as §1

The next experiment relates to Setaria faberi (SETFA). Described as above. As to conditions: evaluated after 13 days. Here is the method: as §1
The test system of experiment [3] is Amaranthus retoflexus (AMARE). Described as above. As to conditions: evaluated after 13 days. On the procedure:
as §1

Experiment [4] concerns Panicum miliaceum (PANMI). In words: Experiment B2 comparative glasshouse herbicide test, pre- and post-emergence, phytotoxicity. On the procedure:
(§2) A comparative test is performed to compare the efficacy of quinoline compounds of the present invention with quinoline compounds taught in WO2014/037342 and napthyridines taught in WO2013/092834. Seeds of a variety of test species were sown in standard soil in pots. After cultivation for one day (pre-emergence) or after 10 days cultivation (post-emergence) under controlled conditions in a glasshouse (at 24/16° C., day/night; 14 hours light; 65% humidity), the plants were sprayed with an aqueous spray solution derived from the formulation of the technical active ingredient in 0.6 ml acetone and 45 ml formulation solution containing 10.6% Emulsogen EL (Registry number 61791-12-6), 42.2% N-methyl pyrrolidone, 42.2% dipropylene glycol monomethyl ether (CAS RN 34590-94-8) and 0.2% X-77 (CAS RN 11097-66-8). The test plants were then grown in a glasshouse under controlled conditions in a glasshouse (at 24/16° C., day/night; 14 hours light; 65% humidity) and watered twice daily. After 14 days for post-emergence and 21 days for pre-emergence and phytotoxicity evaluated using a five point scale (5=80-100%; 4=60-79%; 3=40-59%; 2=20-39%; 1=0-19%). Test Plants:—Eriochloa villosa (ERBVI), Panicum miliaceum (PANMI).

For experiment [5], the system named is Eriochloa villosa (ERBVI). The description is as above. Here is the method:
as §2

[6] abbreviates: POST Application (post-emergence, after 8 days cultivation), 1000 g/h.
The mark [7] stands for this setting: PRE Application (pre-emergence, after cultivation for one day), 1000 g/h.
[8] abbreviates: POST Application (60 g/ha), after 10 days cultivation, evaluated after 14 days.
Setting [9] is: PRE Application (250 g/ha), after cultivation for one day, evaluated after 21 days.
[10] abbreviates: POST Application (post-emergence), applied at 250 g/ha.
[11] abbreviates: PRE Application (pre-emergence), applied at 250 g/ha.

As to `Cn1nnnc1NC(=O)c1cc2cccnc2c(-c2ccccc2)c1C(F)(F)F` [Compound 1.001, N-(1-methyltetrazol-5-yl)-8-phenyl-7-(trifluoromethyl)-quinoline-6-carboxamide], the “percentage damage caused to the plant, five point scale, LOLPE” value in the experiment with Lolium perenne (LOLPE) (setting [6]) and in the experiment with Lolium perenne (LOLPE) (setting [7]) was 5 (5=80-100%) in each case. Also, the “percentage damage caused to the plant, five point scale, SOLNI” value with Solanum nigrum (SOLNI) (setting [6]) and in the experiment with Solanum nigrum (SOLNI) (setting [7]) was 5 (5=80-100%) throughout. In addition, the “percentage damage caused to the plant, five point scale, ECHCG” value in experiment [1] (setting [6]) and in experiment [1] (setting [7]) was 5 (5=80-100%) each time. Besides, the “percentage damage caused to the plant, five point scale, IPOHE” value in experiment [2] (setting [6]) and in experiment [2] (setting [7]) was 5 (5=80-100%) in each case. The “percentage damage caused to the plant, five point scale, SETFA” value in the experiment on Setaria faberi (SETFA) (setting [6]) and in the experiment with Setaria faberi (SETFA) (setting [7]) was 5 (5=80-100%) in each case. Also, the “percentage damage caused to the plant, five point scale, AMARE” value in experiment [3] (setting [6]) and in experiment [3] (setting [7]) was 5 (5=80-100%) in each case. For the same molecule, the “phytotoxicity, five point scale, PANMI” value in experiment [4] (setting [8]) and in experiment [4] (setting [9]) was 5 (5=80-100%) in each case. Also, the “phytotoxicity, five point scale, ERBVI” value in experiment [5] (setting [8]) is reported as 5 (5=80-100%); in experiment [5] (setting [9]) it was 3 (3=40-59%).

As to `Cn1nnnc1NC(=O)c1cc2cccnc2c(-c2ccccc2)c1[S+](C)[O-]` (stereo not shown) [Compound 1.045], the figures for the “percentage damage caused to the plant, five point scale, LOLPE” value with Lolium perenne (LOLPE) (setting [10]) and with Lolium perenne (LOLPE) (setting [11]) were 3 (3=40-59%) and 1 (1=0-19%), respectively. The entries for the “percentage damage caused to the plant, five point scale, SOLNI” value in the experiment on Solanum nigrum (SOLNI) (setting [10]) and in the experiment on Solanum nigrum (SOLNI) (setting [11]) were 5 (5=80-100%) and 4 (4=60-79%), respectively. The results for the “percentage damage caused to the plant, five point scale, ECHCG” value in experiment [1] (setting [10]) and in experiment [1] (setting [11]) were 5 (5=80-100%) and 4 (4=60-79%), respectively. Further, the “percentage damage caused to the plant, five point scale, IPOHE” value is 5 (5=80-100%) in experiment [2] (setting [10]) and 2 (2=20-39%) in experiment [2] (setting [11]). The “percentage damage caused to the plant, five point scale, SETFA” value in the experiment on Setaria faberi (SETFA) (setting [10]) is listed as 5 (5=80-100%); with Setaria faberi (SETFA) (setting [11]), 1 (1=0-19%). Further, the “percentage damage caused to the plant, five point scale, AMARE” value in experiment [3] (setting [10]) is reported as 5 (5=80-100%); in experiment [3] (setting [11]), 4 (4=60-79%).

(Values after patent US9980486B2, “Herbicidal quinolines” (Syngenta Participations AG, priority 2014, dated 2018).)
